Measured values: PMC3720870, “Chiral Hydroxylation at the Mononuclear Nonheme Fe(II) Center of 4-(S) Hydroxymandelate Synthase – A Structure-Activity Relationship Analysis” (PLoS ONE, 2013)

These compounds were tested against T1, Hms (Streptomyces coelicolor, UniProt Q9Z4X7) (assay: O2 consumption, micro-optode, steady state). Conditions: apparent constant at air saturation; 20 mM Tris/HCl pH 7.5, 25 °C; no added Fe(II).
T1 construct: gene SCO3229; full-length, C-terminal Strep-tag II kept, expressed in E. coli BL21(DE3) from pKYB1; monomer, ~45 kDa
T1 sequence (Q9Z4X7 1-371): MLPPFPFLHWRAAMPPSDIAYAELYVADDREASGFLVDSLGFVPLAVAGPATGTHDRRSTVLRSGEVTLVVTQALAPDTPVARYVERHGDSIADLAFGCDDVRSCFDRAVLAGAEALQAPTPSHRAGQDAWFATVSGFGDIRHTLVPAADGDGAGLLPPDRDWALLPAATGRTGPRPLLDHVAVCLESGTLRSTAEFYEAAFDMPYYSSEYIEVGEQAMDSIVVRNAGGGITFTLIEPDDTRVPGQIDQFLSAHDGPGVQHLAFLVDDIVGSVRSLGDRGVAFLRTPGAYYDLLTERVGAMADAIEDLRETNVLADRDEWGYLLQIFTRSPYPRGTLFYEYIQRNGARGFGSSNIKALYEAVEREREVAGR
Assay type: biochemical

Q: How did the Km turn out when `O=C(O)C(=O)Cc1ccccc1` [PP, Phenylpyruvic acid] was run?
A: The Km was 353 ± 87 µM.

Q: Which Km does the source give for `COc1ccc(CC(=O)C(=O)O)cc1` [VII, p-Methoxyphenylpyruvic acid] here?
A: Its Km is 160 ± 70 µM.

Q: How did the Km turn out when `O=C(O)C(=O)CCc1ccccc1` [OPB, 2-Oxo-4-phenylbutanoic acid] was run?
A: The Km was 35 ± 20 µM.
